From ChEMBL document CHEMBL4477215, “Specific Correction of Alternative Survival Motor Neuron 2 Splicing by Small Molecules: Discovery of a Potential Novel Medicine To Treat Spinal Muscular Atrophy” (J Med Chem, 2016)
Active and inactive are the calls of the source. No cut-off for these calls is given here.

Experiments:
Homo sapiens [1] = organism: Homo sapiens; assay: Inhibition of mRNA splicing of SMN2 exon 7 in fibroblasts derived from human SMA type 1/2/3 patient assessed as increase in SMN protein level after 48 hrs by HTRF assay
[2] = Mutagenicity in Salmonella typhimurium TA1535 assessed as increase in revertant colonies after 2 days in presence of rat liver S9 fraction by Ames test relative to control; format: toxicity; details: salmonella enterica subsp. enterica serovar typhimurium, s9, 48 h
[3] = Mutagenicity in Salmonella typhimurium TA98 assessed as increase in revertant colonies after 2 days in presence of rat liver S9 fraction by Ames test relative to control; format: toxicity; details: salmonella enterica subsp. enterica serovar typhimurium, s9, 48 h
[4] = Mutagenicity in Salmonella typhimurium TA97 assessed as increase in revertant colonies after 2 days in presence of rat liver S9 fraction by Ames test relative to control; format: toxicity; details: salmonella enterica subsp. enterica serovar typhimurium, s9, 48 h
[5] = Mutagenicity in Salmonella typhimurium TA100 assessed as increase in revertant colonies after 2 days in presence of rat liver S9 fraction by Ames test relative to control; format: toxicity; details: salmonella enterica subsp. enterica serovar typhimurium, s9, 48 h
[6] = Mutagenicity in Salmonella typhimurium TA102 assessed as increase in revertant colonies after 2 days in presence of rat liver S9 fraction by Ames test relative to control; format: toxicity; details: salmonella enterica subsp. enterica serovar typhimurium, s9, 48 h
Homo sapiens [7] = organism: Homo sapiens; assay: Inhibition of mRNA splicing of SMN2 exon 7 in GM03813 fibroblasts derived from human SMA type 1 patient after 24 hrs by RT-qPCR analysis
[8] = Octanol-aqueous phosphate buffer distribution coefficient, log D of the compound at pH 7.4 at 100 mM after 24 hrs by LC-MS based shake flask method; format: physicochemical
P-gp (ABCB1) = P-gp (ABCB1) (Homo sapiens, UniProt P08183); assay: Substrate activity at human P-gp assessed as efflux ratio by cell based assay; details: not told
[9] = Stability in human plasma assessed as compound remaining after 5 hrs; format: ADME, cell-free; details: read-out: Stability
NIH3T3 = assay: Phototoxicity in mouse 3T3 cells in presence of UVA irradiation; format: functional, cell-based; details: NIH3T3, light or radiation study
[10] = Stability of the compound in human plasma; format: ADME, cell-free
[11] = Stability of the compound in pH 1 to 12 aqueous buffer; format: physicochemical

Sequence of P-gp (ABCB1) (P08183 whole entry): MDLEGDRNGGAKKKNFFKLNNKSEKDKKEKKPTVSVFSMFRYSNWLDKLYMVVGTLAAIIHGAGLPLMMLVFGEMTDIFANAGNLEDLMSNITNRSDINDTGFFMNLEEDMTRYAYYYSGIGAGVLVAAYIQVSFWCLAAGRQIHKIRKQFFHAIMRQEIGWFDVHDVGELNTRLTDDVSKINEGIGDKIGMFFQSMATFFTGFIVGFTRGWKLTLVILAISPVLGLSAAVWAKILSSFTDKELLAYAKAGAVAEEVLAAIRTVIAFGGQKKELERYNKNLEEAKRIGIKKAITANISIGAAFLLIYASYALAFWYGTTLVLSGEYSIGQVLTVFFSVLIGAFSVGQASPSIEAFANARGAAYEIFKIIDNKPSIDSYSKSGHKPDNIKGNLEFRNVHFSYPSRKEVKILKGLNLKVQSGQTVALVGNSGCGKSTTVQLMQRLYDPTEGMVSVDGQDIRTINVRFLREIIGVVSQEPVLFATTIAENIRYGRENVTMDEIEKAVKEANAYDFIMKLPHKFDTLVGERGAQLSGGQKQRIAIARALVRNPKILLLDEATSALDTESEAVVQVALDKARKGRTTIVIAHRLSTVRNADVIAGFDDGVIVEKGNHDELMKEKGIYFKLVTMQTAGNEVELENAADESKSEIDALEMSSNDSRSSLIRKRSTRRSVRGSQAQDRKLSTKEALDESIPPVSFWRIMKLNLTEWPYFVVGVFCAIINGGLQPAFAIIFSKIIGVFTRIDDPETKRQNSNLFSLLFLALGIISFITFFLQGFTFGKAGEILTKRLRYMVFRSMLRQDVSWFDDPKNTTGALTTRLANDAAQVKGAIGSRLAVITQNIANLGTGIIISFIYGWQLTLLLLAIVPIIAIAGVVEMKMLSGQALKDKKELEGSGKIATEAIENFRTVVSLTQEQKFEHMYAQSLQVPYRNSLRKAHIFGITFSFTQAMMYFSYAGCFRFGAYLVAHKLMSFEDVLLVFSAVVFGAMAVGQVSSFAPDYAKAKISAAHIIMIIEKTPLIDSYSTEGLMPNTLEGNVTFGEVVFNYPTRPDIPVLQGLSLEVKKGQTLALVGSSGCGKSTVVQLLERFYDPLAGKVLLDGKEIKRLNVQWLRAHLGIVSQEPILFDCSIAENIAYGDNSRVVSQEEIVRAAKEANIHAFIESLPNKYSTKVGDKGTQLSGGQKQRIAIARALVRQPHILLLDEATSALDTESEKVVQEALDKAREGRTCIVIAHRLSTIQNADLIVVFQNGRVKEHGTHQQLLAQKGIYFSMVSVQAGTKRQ

Compound	EC1.5 (Homo sapiens [1])	fold change (FC) [2]	fold change (FC) [3]	fold change (FC) [4]	fold change (FC) [5]	fold change (FC) [6]	EC1.5 (Homo sapiens [7])	Activity [2]	Activity [3]	Activity [4]	Activity [5]	Activity [6]	further results
Cc1nc2c(F)cc(-c3cc(=O)n4cc(N5CCN(C)CC5)ccc4n3)cc2o1	13 nM	< 2	< 2	< 1.5	< 1.5	< 1.5	3 nM	–	–	–	–	–	logD at 24 h [8]: 2.46; efflux ratio (P-gp (ABCB1)): 1.1
CCc1nc(C)cn2nc(-c3cc(=O)n4cc(C5=CCNCC5)cc(C)c4n3)cc12	15 nM	–	–	–	–	–	6 nM	Non-Toxic	Non-Toxic	Non-Toxic	Non-Toxic	Non-Toxic	–
Cc1cn2nc(-c3cc(=O)n4cc(C5CCN(C)CC5)cc(C)c4n3)cc2c(C)n1	77 nM	–	–	–	–	–	57 nM	Non-Toxic	Non-Toxic	Non-Toxic	Non-Toxic	Non-Toxic	logD at 24 h [8]: 1.82; efflux ratio (P-gp (ABCB1)): 1.2
CC(=O)c1cc2ccc(F)cc2c(=O)o1	–	–	–	–	–	–	–	–	–	–	–	–	remaining at 5 h [9]: 16%
Cc1cn2cc(-c3cc(=O)n4cc(N5CCC(N6CCC6)CC5)ccc4n3)cc2c(C)n1	46 nM	–	–	–	–	–	–	–	–	–	–	–	logD at 24 h [8]: 1.53; efflux ratio (P-gp (ABCB1)): 6.6
Cc1cn2nc(-c3cc(=O)n4cc(N5CCN(C)CC5)ccc4n3)cc2c(C)n1	170 nM	–	–	–	–	–	92 nM	Non-Toxic	Non-Toxic	Non-Toxic	Non-Toxic	Non-Toxic	IC50 (NIH3T3): 2900 nM; Stability [10]: Stable; Stability [11]: Stable
CCN1CCC(c2cc(C)c3nc(-c4cc5c(C)nc(C)cn5n4)cc(=O)n3c2)CC1	84 nM	–	–	–	–	–	30 nM	Non-Toxic	Non-Toxic	Non-Toxic	Non-Toxic	Non-Toxic	logD at 24 h [8]: 1.87; efflux ratio (P-gp (ABCB1)): 1.4
CCN1CCN(c2ccc3cc(-c4cn5cc(C)nc(C)c5n4)c(=O)oc3c2)C[C@@H]1C	–	–	–	–	–	–	–	–	–	–	–	–	remaining at 5 h [9]: 93%; IC50 (NIH3T3): 80 nM
Cc1nc2c(F)cc(-c3cc(=O)n4cc(N5CCNCC5)ccc4n3)cc2o1	4 nM	< 2	< 2	< 1.5	< 1.5	< 1.5	1 nM	–	–	–	–	–	–
CCc1nc(C)cn2nc(-c3cc(=O)n4cc(N5CCN6CCC[C@H]6C5)ccc4n3)cc12	163 nM	–	–	–	–	–	40 nM	Non-Toxic	Non-Toxic	Non-Toxic	Non-Toxic	Non-Toxic	–
Cc1cn2cc(-c3cc4ccc(N5CCN(C)CC5)cc4c(=O)o3)nc2c(C)n1	–	–	–	–	–	–	–	–	–	–	–	–	remaining at 5 h [9]: 55%; IC50 (NIH3T3): 150 nM
Cc1cn2cc(-c3cc(=O)n4cc(N5CCNCC5)ccc4n3)cc(F)c2n1	9 nM	–	–	–	–	–	1 nM	Non-Toxic	Non-Toxic	Non-Toxic	Non-Toxic	Non-Toxic	–
Cc1nc2ccc(-c3cc(=O)n4cc(N5CCN(C)CC5)ccc4n3)cn2n1	820 nM	< 2	< 2	< 1.5	< 1.5	< 1.5	314 nM	–	–	–	–	–	–
CN1CCN(c2ccc3nc(-c4ccc5c(c4)ncn5C)cc(=O)n3c2)CC1	inactive	< 2	< 2	< 1.5	< 1.5	< 1.5	inactive	–	–	–	–	–	–
Cc1cn2cc(-c3cc(=O)n4cc(N5CCN(C)CC5)ccc4n3)ccc2n1	760 nM	< 2	< 2	< 1.5	< 1.5	< 1.5	182 nM	–	–	–	–	–	–
Cc1cn2cc(-c3cc(=O)n4cc(N5CCC(N6CCCC6)CC5)ccc4n3)cc(C(F)(F)F)c2n1	76 nM	–	–	–	–	–	–	–	–	–	–	–	logD at 24 h [8]: 1.45; efflux ratio (P-gp (ABCB1)): 8.5
CN1CCN(c2ccc3nc(-c4ccc5nccn5c4)cc(=O)n3c2)CC1	3400 nM	< 2	< 2	< 1.5	< 1.5	< 1.5	582 nM	–	–	–	–	–	–
Cc1cn2cc(-c3cc4ccc(F)cc4c(=O)o3)nc2c(C)n1	–	–	–	–	–	–	–	–	–	–	–	–	remaining at 5 h [9]: 30%
Cc1nc2ccc(-c3cc(=O)n4cc(N5CCN(C)CC5)ccc4n3)cc2o1	395 nM	< 2	< 2	< 1.5	< 1.5	< 1.5	148 nM	–	–	–	–	–	–
